One data set addresses T1, Aromatase (Homo sapiens, UniProt P11511).
T1 construct: host or cells: JEG3 choriocarcinoma cells (intact monolayers)
T1 sequence (P11511 1-503): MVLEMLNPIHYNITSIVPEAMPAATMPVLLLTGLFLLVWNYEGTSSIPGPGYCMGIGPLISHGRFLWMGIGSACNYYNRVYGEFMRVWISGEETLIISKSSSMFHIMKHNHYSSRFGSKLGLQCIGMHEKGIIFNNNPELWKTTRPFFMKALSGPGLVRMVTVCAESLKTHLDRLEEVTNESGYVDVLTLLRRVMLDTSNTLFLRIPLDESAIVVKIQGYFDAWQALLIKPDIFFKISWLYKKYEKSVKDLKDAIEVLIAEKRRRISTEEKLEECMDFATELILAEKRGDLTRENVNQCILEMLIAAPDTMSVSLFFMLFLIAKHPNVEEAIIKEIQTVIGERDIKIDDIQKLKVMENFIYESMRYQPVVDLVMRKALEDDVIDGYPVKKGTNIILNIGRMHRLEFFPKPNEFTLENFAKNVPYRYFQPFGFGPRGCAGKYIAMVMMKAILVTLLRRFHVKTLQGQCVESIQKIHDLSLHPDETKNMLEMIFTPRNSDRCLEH
Kind of data set: Aromatase activity in JEG3 choriocarcinoma cells (Protocol 6). Type of data set: cell-based. As to conditions: for IC50: JEG3 cells. The protocol: Aromatase activity is measured in JEG3 choriocarcinoma cells, obtained from the ATCC.
During the aromatase reaction, ^3H2O is liberated which can be quantified using a liquid scintillation spectrometer (Beckman-Coulter, High Wycombe, Bucks. UK). […] The number of cell nuclei per flask is determined using a Coulter Counter after treating the cell monolayers with Z aponin.
Unpaired Student's t test was used to test the statistical significance of results.
A number of compounds were tested for aromatase and steroid sulphatase inhibition in accordance with the above Protocols 1 and 6.

On Aromatase, `CC(=O)c1cccc(-c2cccc(Cn3cncn3)c2)c1` [compound 1838] came in with an IC50 of less than 1000 nM.

`N#Cc1ccc(Cn2cncn2)c(-c2ccccc2)c1` [Compound 51] came in with an IC50 on Aromatase of less than 1000 nM.

On Aromatase, `Clc1cc(-c2cccc(Cn3cncn3)c2)ccc1OCc1ccccc1` [compound 1502] showed an IC50 of less than 10000 nM.

On Aromatase, `Clc1cccc(-c2cccc(Cn3cncn3)c2)c1` [compound 1384] returned an IC50 of less than 1000 nM.

In the case of `N#Cc1cc(Cn2cncn2)ccc1-c1ccc(O)cc1` [Compound 47], the melting point lay within 168 to 171 °C. Moreover, on Aromatase, the half-maximal inhibitory concentration (IC50) is less than 1000 nM.

As to `N#Cc1ccc(-c2ccc3ccccc3c2)cc1Cn1cncn1` [compound 1504], the half-inhibitory concentration (IC50) at Aromatase is less than 1000 nM.

For the molecule `N#Cc1ccc(-c2cc(C#N)cc(Cn3cncn3)c2)cc1` [Compound 36, 5-((1H-1,2,4-triazol-1-yl)methyl)biphenyl-3,4′-dicarbonitrile], the melting point lay in the range of 154 to 155 °C. The same molecule registered an IC50 against Aromatase of less than 1000 nM.

On to `N#Cc1ccc(-c2ccc(OCc3ccccc3)cc2)cc1Cn1cncn1` [compound 1457], for which the IC50 on Aromatase was less than 10000 nM.

Consider `N#Cc1ccc(-c2ccccc2)cc1Cn1cncn1` [compound 1456], for which, on Aromatase, the IC50 was less than 1000 nM.

With `N#Cc1ccc(-c2cccc(Cn3cncn3)c2)cc1` [compound 1459], on Aromatase, the IC50 is less than 1000 nM.

`CC(C)(C#N)c1cc(Cn2cncn2)cc(-c2ccc(OS(N)(=O)=O)cc2)c1` [Compound 56, 3′-((1H-1,2,4-triazol-1-yl)methyl)-5′-(2-cyanopropan-2-yl)biphenyl-4-yl sulfamate]: the melting point lay in the range of 74 to 76 °C. The same molecule had an IC50 against Aromatase of less than 1000 nM.

For the molecule `COc1ccc(-c2cccc(Cn3cncn3)c2)cc1` [compound 1452], the 50% inhibitory concentration (IC50) at Aromatase is less than 1000 nM.

For the molecule `N#Cc1cc(Cn2cncn2)ccc1-c1ccccc1` [Compound 46], the IC50 against Aromatase is less than 1000 nM.

In the case of `Fc1cccc(-c2cccc(Cn3cncn3)c2)c1` [compound 1524], on Aromatase, the IC50 is less than 1000 nM.

In the case of `N#Cc1cc(Cn2cncn2)cc(-c2ccc(F)cc2)c1` [Compound 35, 5-((1H-1,2,4-triazol-1-yl)methyl)-4′-fluorobiphenyl-3-carbonitrile], the melting point was in the range of 134 to 135 °C. This molecule returned an IC50 at Aromatase of less than 1000 nM.

In turn, `Fc1ccc(-c2ccccc2)cc1Cn1cncn1` [compound 1841] showed an IC50 against Aromatase of less than 1000 nM.

For the molecule `N#Cc1cccc(-c2ccc(C#N)c(Cn3cncn3)c2)c1` [compound 1505], the IC50 against Aromatase is less than 10000 nM.

Molecule `N#Cc1ccc(-c2ccc(C#N)c(Cn3cncn3)c2)cc1` [compound 1510] returned an IC50 at Aromatase of less than 1000 nM.

Consider `CC(C)(C#N)c1cc(Cn2cncn2)cc(-c2cccc(C#N)c2)c1` [compound 1509], for which the IC50 at Aromatase was less than 1000 nM.

The molecule `c1ccc(COc2ccc(-c3cccc(Cn4cncn4)c3)cc2)cc1` [compound 1362] displayed a 50% inhibitory concentration (IC50) at Aromatase of less than 10000 nM.

`Oc1ccc(-c2cccc(Cn3cncn3)c2)cc1` [compound 1387]: on Aromatase, the IC50 is less than 1000 nM.

For `CN(C)S(=O)(=O)Oc1ccc(-c2cc(Cn3cncn3)ccc2C#N)cc1` [Compound 21, 5′-((1H-1,2,4-triazol-1-yl)methyl)-2′-cyanobiphenyl-4-yl dimethylsulfamate], at Aromatase, the IC50 is less than 1000 nM.

Molecule `N#Cc1cc(Cn2cncn2)cc(-c2ccc(O)cc2)c1` [Compound 37, 5-((1H-1,2,4-triazol-1-yl)methyl)-4′-hydroxybiphenyl-3-carbonitrile] yielded a melting point of 186 to 187 °C. This molecule showed an IC50 against Aromatase of less than 1000 nM.

Molecule `N#Cc1cc(Cn2cncn2)cc(-c2ccc(O)c(Cl)c2)c1` [Compound 39] showed a melting point of 208 to 209 °C. Also, the IC50 against Aromatase is less than 1000 nM.

Molecule `c1cc(Cn2cncn2)cc(-c2cccc3c2oc2ccccc23)c1` [compound 1839] registered an IC50 at Aromatase of less than 1000 nM.

In the case of `Fc1ccc(-c2cccc(Cn3cncn3)c2)cc1` [compound 1525], the IC50 against Aromatase is less than 1000 nM.

At Aromatase, `c1ccc(-c2ccc(-c3cccc(Cn4cncn4)c3)cc2)cc1` [compound 1388] gave an IC50 of less than 10000 nM.

`N#Cc1ccc(Cn2cncn2)cc1-c1ccc(Cl)c(O)c1` [Compound 25] came in with a melting point of 228 to 229 °C. The same molecule showed an IC50 against Aromatase of less than 1000 nM.

For `c1cc(Cn2cncn2)cc(-c2ccc3ccccc3c2)c1` [compound 1385], the IC50 at Aromatase is less than 1000 nM.

For `N#Cc1ccc(-c2cccc(OS(N)(=O)=O)c2)cc1Cn1cncn1` [Compound 29, 3′-((1H-1,2,4-triazol-1-yl)methyl)-4′-cyanobiphenyl-3-yl sulfamate], the melting point is 137 to 138 °C. In addition, at Aromatase (@ 1 μM), the “JEG3-cells Aromatase, % at single concentration” value is listed as 63.4 ± 2.1% @ 1 μM.

`N#Cc1cc(Cn2cncn2)ccc1-c1ccc(O)c(Cl)c1` [Compound 49, 4-((1H-1,2,4-triazol-1-yl)methyl)-3′-chloro-4′-hydroxybiphenyl-2-carbonitrile] showed a melting point of 195 to 197 °C. This molecule yielded an IC50 against Aromatase of less than 1000 nM.

The molecule `O=C(c1ccccc1)c1cccc(-c2cccc(Cn3cncn3)c2)c1` [compound 1511] came in with a half-inhibitory concentration (IC50) against Aromatase of less than 1000 nM.

At Aromatase, `c1ccc(-c2ccc(Cn3cncn3)cc2)cc1` [compound 1975] had an IC50 of less than 10000 nM.

With `Oc1ccc(-c2cccc(Cn3cncn3)c2)cc1Cl` [compound 1519], the IC50 on Aromatase was less than 1000 nM.

As to `N#Cc1ccc(Cn2cncn2)c(-c2ccc(O)c(Cl)c2)c1` [Compound 52, 6-((1H-1,2,4-triazol-1-yl)methyl)-3′-chloro-4′-hydroxybiphenyl-3-carbonitrile], the melting point lay in the range of 243 to 245 °C. Further, the IC50 against Aromatase is less than 1000 nM.

Molecule `N#Cc1cc(Cn2cncn2)cc(-c2ccc(OS(N)(=O)=O)cc2)c1` [Compound 38, 3′-((1H-1,2,4-triazol-1-yl)methyl)-5′-cyanobiphenyl-4-yl sulfamate] came in with a melting point of 166 to 167 °C. At Aromatase, this molecule registered an IC50 of less than 1000 nM.

The molecule `NS(=O)(=O)Oc1ccc2cc(-c3cccc(Cn4cncn4)c3)ccc2c1` [compound 2052] registered an IC50 against Aromatase of less than 10000 nM.

The molecule `N#Cc1ccc(Cn2cncn2)cc1-c1ccccc1` [compound 1978] yielded an IC50 on Aromatase of less than 1000 nM.

The molecule `CN(C)S(=O)(=O)Oc1ccc(-c2cc(Cn3cncn3)ccc2C#N)cc1Cl` [Compound 24, 5′-((1H-1,2,4-triazol-1-yl)methyl)-3-chloro-2′-cyanobiphenyl-4-yl dimethylsulfamate] returned a melting point of 119 to 120 °C. Also, the half-maximal inhibitory concentration (IC50) against Aromatase is less than 1000 nM.

Regarding `N#Cc1cc(Cn2cncn2)cc(-c2ccccc2)c1` [Compound 34, 5-((1H-1,2,4-triazol-1-yl)methyl)biphenyl-3-carbonitrile], the melting point lay within 109 to 110 °C. The molecule also yielded an IC50 against Aromatase of less than 1000 nM.

Consider `N#Cc1ccc(Cn2cncn2)c(-c2ccc(OS(N)(=O)=O)c(Cl)c2)c1` [Compound 53, 2′-((1H-1,2,4-triazol-1-yl)methyl)-3-chloro-5′-cyanobiphenyl-4-yl sulfamate], for which the melting point is 139 to 142 °C. Besides, the IC50 at Aromatase was less than 1000 nM.

With `N#Cc1ccc(-c2cccc(Cl)c2)cc1Cn1cncn1` [compound 1503], the IC50 at Aromatase was less than 1000 nM.

For `CC(C)(C#N)c1cc(Cn2cncn2)cc(-c2ccc3ccccc3c2)c1` [compound 1508], the IC50 against Aromatase was less than 1000 nM.

The molecule `N#Cc1ccc(-c2cccc(O)c2)cc1Cn1cncn1` [compound 1843] returned an IC50 on Aromatase of less than 1000 nM.

Molecule `CC(C)(C#N)c1cc(Cn2cncn2)cc(-c2ccc(O)cc2)c1` [compound 1521] gave an IC50 against Aromatase of less than 1000 nM.

In turn, `N#Cc1ccc(Cn2cncn2)cc1-c1ccc(Cl)c(OS(N)(=O)=O)c1` [Compound 26, 5′-((1H-1,2,4-triazol-1-yl)methyl)-4-chloro-2′-cyanobiphenyl-3-yl sulfamate] showed a melting point of 148 to 150 °C. At Aromatase, the IC50 was less than 1000 nM.

Turning to `Oc1ccc(-c2ccc(F)c(Cn3cncn3)c2)cc1` [compound 1842], at Aromatase, the IC50 is less than 1000 nM.

On to `COc1ccc(-c2cccc(Cn3cncn3)c2)cc1Cl` [compound 1512], for which the IC50 on Aromatase is less than 1000 nM.

As for `c1ccc(Oc2ccccc2-c2ccc(Cn3cncn3)cc2)cc1` [compound 1835], at Aromatase, the half-maximal inhibitory concentration (IC50) is less than 1000 nM.

For the molecule `CC(C)(C#N)c1cc(Cn2cncn2)cc(-c2cccc(Cl)c2)c1` [compound 1507], the IC50 at Aromatase is less than 1000 nM.

Regarding `Oc1cccc(-c2cccc(Cn3cncn3)c2)c1` [compound 1840], the IC50 against Aromatase is less than 1000 nM.

Consider `N#Cc1cccc(-c2cccc(Cn3cncn3)c2)c1` [compound 1458], for which the IC50 against Aromatase was less than 1000 nM.

In turn, `CC(C)(C#N)c1cc(Cn2cncn2)cc(-c2cccc(C(=O)c3ccccc3)c2)c1` [compound 1844] showed an IC50 against Aromatase of less than 1000 nM.

`COc1ccc2cc(-c3cccc(Cn4cncn4)c3)ccc2c1` [compound 1981] returned an IC50 on Aromatase of less than 1000 nM.

The molecule `CC(C)(C#N)c1cc(Cn2cncn2)cc(-c2ccccc2)c1` [compound 1506] registered an IC50 at Aromatase of less than 1000 nM.

For the molecule `Clc1ccc(-c2cccc(Cn3cncn3)c2)cc1` [compound 1386], the IC50 against Aromatase was less than 1000 nM.

On to `N#Cc1ccc(-c2ccc(O)cc2)cc1Cn1cncn1` [compound 1520], for which, at Aromatase, the IC50 is less than 1000 nM.

Turning to `c1ccc(-c2cccc(Cn3cncn3)c2)cc1` [compound 1361], the IC50 against Aromatase was less than 1000 nM.

One may read the IC50 as the concentration needed to halve the response being measured. The melting point is the temperature, or range, at which the solid turns liquid.

The values above are taken from patent publication US8093279B2, “Compound” (priority 2005, dated 2012).
